PubChem BioAssay AID1259407 (Chemical Carcinogenesis Research Information System (CCRIS), 2018)
Activity calls are given as the source filed them. How the calls were made is not given here.

Tested on: CCRIS mutagenicity, Ames/micronucleus/aberration tests
Experiment: CCRIS mutagenicity studies
[1] = Test System: AMES SALMONELLA TYPHIMURIUM, Strain/Indicator: TA100, Metabolic Activation: NONE, Method: STANDARD PLATE
[2] = Test System: AMES SALMONELLA TYPHIMURIUM, Strain/Indicator: TA100, Metabolic Activation: RAT, LIVER, S-9, Method: PREINCUBATION
[3] = Test System: AMES SALMONELLA TYPHIMURIUM, Strain/Indicator: TA98, Metabolic Activation: NONE, Method: PREINCUBATION
[4] = Test System: AMES SALMONELLA TYPHIMURIUM, Strain/Indicator: TA100, Metabolic Activation: NONE, Method: PREINCUBATION

SMILES: C=CC(=O)OCCCCC
- mutagenic call (Test System: AMES SALMONELLA TYPHIMURIUM, Strain/Indicator: TA98, Metabolic Activation: NONE, Method: STANDARD PLATE): inactive; negative
- mutagenic call (Test System: AMES SALMONELLA TYPHIMURIUM, Strain/Indicator: TA98, Metabolic Activation: RAT, LIVER, S-9, AROCLOR 1254, Method: STANDARD PLATE): inactive; negative
- mutagenic call (Test System: AMES SALMONELLA TYPHIMURIUM, Strain/Indicator: TA98, Metabolic Activation: RAT, LIVER, S-9, SODIUM PHENOBARBITAL, Method: STANDARD PLATE): inactive; negative
- mutagenic call [1]: inactive; negative
- mutagenic call (Test System: AMES SALMONELLA TYPHIMURIUM, Strain/Indicator: TA100, Metabolic Activation: RAT, LIVER, S-9, AROCLOR 1254, Method: STANDARD PLATE): inactive; negative
- mutagenic call (Test System: AMES SALMONELLA TYPHIMURIUM, Strain/Indicator: TA100, Metabolic Activation: RAT, LIVER, S-9, SODIUM PHENOBARBITAL, Method: STANDARD PLATE): inactive; negative
- mutagenic call (Test System: AMES SALMONELLA TYPHIMURIUM, Strain/Indicator: TA1535, Metabolic Activation: NONE, Method: STANDARD PLATE): inactive; negative
- mutagenic call (Test System: AMES SALMONELLA TYPHIMURIUM, Strain/Indicator: TA1535, Metabolic Activation: RAT, LIVER, S-9, AROCLOR 1254, Method: STANDARD PLATE): inactive; negative
- mutagenic call (Test System: AMES SALMONELLA TYPHIMURIUM, Strain/Indicator: TA1535, Metabolic Activation: RAT, LIVER, S-9, SODIUM PHENOBARBITAL, Method: STANDARD PLATE): inactive; negative
- mutagenic call (Test System: AMES SALMONELLA TYPHIMURIUM, Strain/Indicator: TA1537, Metabolic Activation: NONE, Method: STANDARD PLATE): inactive; negative
- mutagenic call (Test System: AMES SALMONELLA TYPHIMURIUM, Strain/Indicator: TA1537, Metabolic Activation: RAT, LIVER, S-9, AROCLOR 1254, Method: STANDARD PLATE): inactive; negative
- mutagenic call (Test System: AMES SALMONELLA TYPHIMURIUM, Strain/Indicator: TA1537, Metabolic Activation: RAT, LIVER, S-9, SODIUM PHENOBARBITAL, Method: STANDARD PLATE): inactive; negative
- mutagenic call (Test System: AMES SALMONELLA TYPHIMURIUM, Strain/Indicator: TA1538, Metabolic Activation: NONE, Method: STANDARD PLATE): inactive; negative
- mutagenic call (Test System: AMES SALMONELLA TYPHIMURIUM, Strain/Indicator: TA1538, Metabolic Activation: RAT, LIVER, S-9, AROCLOR 1254, Method: STANDARD PLATE): inactive; negative
- mutagenic call (Test System: AMES SALMONELLA TYPHIMURIUM, Strain/Indicator: TA1538, Metabolic Activation: RAT, LIVER, S-9, SODIUM PHENOBARBITAL, Method: STANDARD PLATE): inactive; negative

SMILES: CCCN(CCC)N=O
- mutagenic call (Test System: AMES SALMONELLA TYPHIMURIUM, Strain/Indicator: TA100, Metabolic Activation: HAMSTER, LIVER, S-9, Method: PREINCUBATION): active; positive
- mutagenic call (Test System: AMES SALMONELLA TYPHIMURIUM, Strain/Indicator: TA100, Metabolic Activation: HUMAN, LIVER, S-9, Method: PREINCUBATION): inactive; negative
- mutagenic call (Test System: AMES SALMONELLA TYPHIMURIUM, Strain/Indicator: TA100, Metabolic Activation: MOUSE, INTACT UROTHELIAL CELLS, Method: FLUCTUATION TEST): active; positive
- mutagenic call [1]: inactive; negative
- mutagenic call (Test System: AMES SALMONELLA TYPHIMURIUM, Strain/Indicator: TA100, Metabolic Activation: PIG, LIVER, S-9, Method: PREINCUBATION): inactive; negative
- mutagenic call (Test System: AMES SALMONELLA TYPHIMURIUM, Strain/Indicator: TA100, Metabolic Activation: RABBIT, LIVER, S-9, Method: STANDARD PLATE): inactive; negative
- mutagenic call (Test System: AMES SALMONELLA TYPHIMURIUM, Strain/Indicator: TA100, Metabolic Activation: RABBIT, LUNG, S-9, Method: STANDARD PLATE): inactive; negative
- mutagenic call (Test System: AMES SALMONELLA TYPHIMURIUM, Strain/Indicator: TA100, Metabolic Activation: RABBIT, NASAL, S-9, Method: STANDARD PLATE): inactive; negative
- mutagenic call (Test System: AMES SALMONELLA TYPHIMURIUM, Strain/Indicator: TA100, Metabolic Activation: RAT, INTACT UROTHELIAL CELLS, Method: FLUCTUATION TEST): active; positive
- mutagenic call (Test System: AMES SALMONELLA TYPHIMURIUM, Strain/Indicator: TA100, Metabolic Activation: RAT, LIVER, S-9, AROCLOR 1254, Method: PREINCUBATION): active; positive
- mutagenic call (Test System: AMES SALMONELLA TYPHIMURIUM, Strain/Indicator: TA100, Metabolic Activation: RAT, LIVER, S-9, KC500 OR PHENOBARBITAL, Method: LIQUID SUSPENSION): active; positive
- mutagenic call [2]: inactive; negative
- mutagenic call (Test System: AMES SALMONELLA TYPHIMURIUM, Strain/Indicator: TA100, Metabolic Activation: RAT, LIVER, S-9, Method: STANDARD PLATE): inactive; negative
- mutagenic call (Test System: AMES SALMONELLA TYPHIMURIUM, Strain/Indicator: TA100, Metabolic Activation: RAT, LUNG, S-9, Method: STANDARD PLATE): inactive; negative
- mutagenic call (Test System: AMES SALMONELLA TYPHIMURIUM, Strain/Indicator: TA100, Metabolic Activation: RAT, NASAL, S-9, Method: STANDARD PLATE): active; positive
- mutagenic call (Test System: AMES SALMONELLA TYPHIMURIUM, Strain/Indicator: TA102, Metabolic Activation: RAT, LIVER, S-9, AROCLOR 1254, Method: PREINCUBATION): active; positive
- mutagenic call (Test System: AMES SALMONELLA TYPHIMURIUM, Strain/Indicator: TA104, Metabolic Activation: RAT, LIVER, S-9, AROCLOR 1254, Method: PREINCUBATION): active; positive
- mutagenic call (Test System: AMES SALMONELLA TYPHIMURIUM, Strain/Indicator: TA1530, Metabolic Activation: RAT, LIVER, S-9, Method: STANDARD PLATE): active; positive
- mutagenic call (Test System: AMES SALMONELLA TYPHIMURIUM, Strain/Indicator: TA1535, Metabolic Activation: RAT, LIVER, S-9, AROCLOR 1254, Method: PREINCUBATION): active; positive
- mutagenic call (Test System: AMES SALMONELLA TYPHIMURIUM, Strain/Indicator: TA1535ER, Metabolic Activation: NONE, Method: STANDARD PLATE): inactive; negative
- mutagenic call (Test System: AMES SALMONELLA TYPHIMURIUM, Strain/Indicator: TA1975, Metabolic Activation: RAT, LIVER, S-9, AROCLOR 1254, Method: PREINCUBATION): active; positive
- mutagenic call (Test System: AMES SALMONELLA TYPHIMURIUM, Strain/Indicator: YG7104ER, Metabolic Activation: NONE, Method: STANDARD PLATE): active; positive
- mutagenic call (Test System: AMES SALMONELLA TYPHIMURIUM, Strain/Indicator: YG7108ER, Metabolic Activation: NONE, Method: STANDARD PLATE): active; positive
- mutagenic call (Test System: CHINESE HAMSTER V-79, Strain/Indicator: V-79/8-AZAGUANINE, Metabolic Activation: RAT, LIVER, S-15, PHENOBARBITAL, Method: STANDARD PLATE): active; positive
- mutagenic call (Test System: CHINESE HAMSTER V-79, Strain/Indicator: V-79/OUABAIN, Metabolic Activation: HAMSTER, HEPATOCYTES, Method: CELL-MEDIATED): active; positive

SMILES: NNc1ccn([C@@H]2C[C@H](O)[C@@H](CO)O2)c(=O)n1
- mutagenic call (Test System: CHINESE HAMSTER V-79, Strain/Indicator: V-79/6-THIOGUANINE, Metabolic Activation: NONE, Method: REPLATING): inactive; negative

SMILES: O=c1[nH][nH]c(=O)c2cc([N+](=O)[O-])ccc12
- mutagenic call (Test System: AMES SALMONELLA TYPHIMURIUM, Strain/Indicator: TA98, Metabolic Activation: HAMSTER, LIVER, S-9, AROCLOR 1254 (30%), Method: PREINCUBATION): active; positive
- mutagenic call [3]: active; positive
- mutagenic call (Test System: AMES SALMONELLA TYPHIMURIUM, Strain/Indicator: TA98, Metabolic Activation: RAT, LIVER, S-9, AROCLOR 1254 (30%), Method: PREINCUBATION): active; positive
- mutagenic call (Test System: AMES SALMONELLA TYPHIMURIUM, Strain/Indicator: TA100, Metabolic Activation: HAMSTER, LIVER, S-9, AROCLOR 1254 (30%), Method: PREINCUBATION): active; positive
- mutagenic call [4]: active; positive
- mutagenic call (Test System: AMES SALMONELLA TYPHIMURIUM, Strain/Indicator: TA100, Metabolic Activation: RAT, LIVER, S-9, AROCLOR 1254 (30%), Method: PREINCUBATION): inactive; negative

SMILES: OC1=c2c(O)cc3cccc4ccc(c2c43)C23CCCCC12O3 (stereo not drawn)
- mutagenic call (Test System: CHINESE HAMSTER V-79, Strain/Indicator: V-79/8-AZAGUANINE, Metabolic Activation: NONE, Method: STANDARD PLATE): active; positive

SMILES: OCc1ccc(F)cc1
- mutagenic call [1]: inactive; negative

SMILES: Cc1cc2ccccc2c2cc([N+](=O)[O-])c3ccccc3c12
- mutagenic call [3]: active; positive
- mutagenic call (Test System: AMES SALMONELLA TYPHIMURIUM, Strain/Indicator: TA98, Metabolic Activation: RAT, LIVER, S-9, Method: PREINCUBATION): active; positive
- mutagenic call [4]: active; positive
- mutagenic call [2]: active; positive
